Patent US8828926B2, “Uses of natriuretic peptide constructs” (priority 2010, dated 2014)
Positions of bridges follow the written chain, without caps; N, C: chain ends. Non-standard residues stand in square brackets, D forms with d. Residues, ends and D or L forms follow the SMILES beside them. *: point of attachment. X1 = N=C(N)NCCC[C@H]1C(=O)N[C@@H](C(N)=O)CN1*; dNle = CCCC[C@@H](N)C(=O)O; Heptanoyl = CCCCCCC(=O)*

Assays:
human lung tissues = assay: Human precision-cut lung slice relaxation, precontracted with carbachol; format: cell-based
human NEP (hNEP) = human NEP (hNEP) (Homo sapiens, UniProt P08473); assay: Metabolism by human neutral endopeptidase (hNEP) solution at 37° C.; format: in vitro ADME; conditions: substrate concentration 50 μM; for remaining at 2 h, 50 μM: read-out: percent remaining after 2-hour exposure to hNEP
Description: . Pharmacol. 191:341-366 (2009)). A comparison was made between the sensitivity of the construct of formula IV and ANP to metabolism by human NEP (hNEP) (substrate concentration 50 μM). After 2-hour exposure to hNEP solution at 37° C., there was minimal degradation of the construct of formula IV (92% remaining; n=5). In contrast, under these conditions ANP was about 90% degraded after 60 minutes and 100% after 2-hours (n=4). […] Results are shown in FIG. 1; results in FIG. 1 are expressed as the percent of the starting material, and are either the mean of 1-5 experiments or, where error bars are shown, are the mean±standard deviation.

[1] = Potter et al. 2009; cited from earlier work
[2] = system: bronchoconstrictor response evoked by methacholine; assay: Methacholine-evoked bronchoconstriction in anesthetized guinea pigs, intratracheal delivery; format: in vivo, guinea pigs (Dunkin Hartley); conditions: 1000 μg/kg IT, 15 minutes, methacholine 10 μg/mL
Description: Studies were conducted with intratracheal (IT) delivery of the construct of formula IV in anesthetized guinea pigs (Dunkin Hartley) challenged with the muscarinic receptor agonist, methacholine. […] The inhibition was maintained for all doses after the 60 minute pretreatment time. The duration of action of 10 μg/kg and 100 μg/kg doses of the construct of formula IV was explored (FIGS. 4C and 4D). For both doses the inhibition extended to 120 minutes post-administration, although it was reduced, with inhibitory effect absent after 240 minutes pretreatment.

human NEP (hNEP), sequence (P08473 whole entry): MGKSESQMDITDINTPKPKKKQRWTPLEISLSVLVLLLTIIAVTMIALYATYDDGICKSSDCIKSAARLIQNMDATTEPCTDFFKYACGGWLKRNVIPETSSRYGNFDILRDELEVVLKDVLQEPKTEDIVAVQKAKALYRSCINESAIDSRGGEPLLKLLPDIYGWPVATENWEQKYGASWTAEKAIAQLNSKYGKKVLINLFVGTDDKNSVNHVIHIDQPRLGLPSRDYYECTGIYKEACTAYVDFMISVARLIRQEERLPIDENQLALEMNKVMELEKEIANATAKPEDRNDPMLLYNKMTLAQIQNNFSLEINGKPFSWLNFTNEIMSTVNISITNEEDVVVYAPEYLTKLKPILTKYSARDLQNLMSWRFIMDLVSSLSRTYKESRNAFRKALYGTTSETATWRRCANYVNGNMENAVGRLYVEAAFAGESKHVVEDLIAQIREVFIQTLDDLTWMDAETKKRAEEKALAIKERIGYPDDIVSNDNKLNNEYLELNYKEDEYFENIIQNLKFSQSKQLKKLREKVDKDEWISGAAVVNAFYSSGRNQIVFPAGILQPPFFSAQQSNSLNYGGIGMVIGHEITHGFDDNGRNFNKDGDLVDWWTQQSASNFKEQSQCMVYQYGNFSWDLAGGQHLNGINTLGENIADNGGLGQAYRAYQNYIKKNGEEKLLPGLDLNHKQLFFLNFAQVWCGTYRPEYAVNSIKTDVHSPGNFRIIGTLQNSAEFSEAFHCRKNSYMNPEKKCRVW

CC(C)NCC(O)c1ccc(O)c(O)c1 (stereo not shown) [Isoprenaline]
relaxation of carbachol-induced contraction (human lung tissues; 100 μM, human lung slices): about 75%
Isoproterenol-mediated broncho-dilatation (human lung tissues; in the absence of the construct of formula IV, n=4): 88.2±3.4%

CCCCCCC(=O)N[C@H]1CSSC[C@@H](C(=O)N[C@@H](Cc2ccc(O)cc2)C(=O)N2C[C@H](C(N)=O)NC(=O)[C@@H]2CCCNC(=N)N)NC(=O)[C@H](CO)NC(=O)[C@H]([C@@H](C)CC)NC(=O)[C@H](CCCNC(=N)N)NC(=O)[C@H](CC(=O)O)NC(=O)[C@@H](CCCC)NC(=O)[C@H](CCCNC(=N)N)NC(=O)CNC(=O)[C@@H](C)NC(=O)[C@H](Cc2ccccc2)NC(=O)[C@H](Cc2c[nH]cn2)NC1=O [construct of formula IV] (Heptanoyl-CHF[dA]GR[dNle]DRISCY-X1; disulfide 1-12)
remaining at 2 h, 50 μM (human NEP (hNEP)): 92%

CC[C@H](C)[C@@H]1NC(=O)[C@H](CCCNC(=N)N)NC(=O)[C@H](CC(=O)O)NC(=O)[C@H](CC(C)C)NC(=O)[C@H](CCCCN)NC(=O)[C@H](CC(C)C)NC(=O)CNC(=O)[C@H](Cc2ccccc2)NC(=O)[C@@H](NC(=O)CNC(=O)[C@H](CCCCN)NC(=O)[C@H](CO)NC(=O)[C@H](CC(C)C)NC(=O)CN)CSSC[C@@H](C(=O)O)NC(=O)CNC(=O)[C@H](CC(C)C)NC(=O)CNC(=O)[C@H](CO)NC(=O)[C@H](CCSC)NC(=O)[C@H](CO)NC(=O)CNC1=O [hCNP]
remaining at 1 h, 50 μM (human NEP (hNEP); 60 min, read-out: percent remaining after 60-min incubation with hNEP): 39%
remaining at 2 h, 50 μM (human NEP (hNEP)): 1%
reported human plasma half-life [1]: about 2 minutes

CC(C)(C)NCC(O)c1ccc(O)c(CO)c1 (stereo not shown) [salbutamol]
maximum inhibition of bronchoconstrictor response [2]: 87±2%
